# PubChem BioAssay AID2060910 (Molecular Pharmacology Branch, DTP, NCI, 2025)
# System: 242566-281-R-J2-PDC complex spheroid viability
# Test: Anticancer human tumor 242566-281-R-J2-PDC patient-derived pancreatic carcinoma cell line growth inhibition [RAS]
# Conditions: for IC50: curve of first compound; for viability, T/C: stronger effect = lower value
# Procedure, shortened: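 Tumour cells grown as complex spheroids with HUVEC endothelial cells and mesenchymal stem cells, treated with RAS pathway inhibitor combinations. Each agent spans half-log steps from near clinical Cmax, or 10 microM where Cmax is unknown.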
# [1] = second compound 0.0316 µM, first compound 0.0316 µM
# [2] = second compound 0.0316 µM, first compound 0.1 µM
# [3] = second compound 0.0316 µM, first compound 0.316 µM
# [4] = second compound 0.0316 µM, first compound 1 µM
# [5] = second compound 0.0316 µM, first compound 3.16 µM
# [6] = second compound 0.0316 µM, first compound 10 µM
# [7] = second compound 0.1 µM, first compound 0.0316 µM
# [8] = second compound 0.1 µM, first compound 0.1 µM
# [9] = second compound 0.1 µM, first compound 0.316 µM
# [10] = second compound 0.1 µM, first compound 1 µM
# [11] = second compound 0.1 µM, first compound 3.16 µM
# [12] = second compound 0.1 µM, first compound 10 µM
# [13] = second compound 0.316 µM, first compound 0.0316 µM
# [14] = second compound 0.316 µM, first compound 0.1 µM
# [15] = second compound 0.316 µM, first compound 0.316 µM
# [16] = second compound 0.316 µM, first compound 1 µM
# [17] = second compound 0.316 µM, first compound 3.16 µM
# [18] = second compound 0.316 µM, first compound 10 µM
# [19] = second compound 1 µM, first compound 0.0316 µM
# [20] = second compound 1 µM, first compound 0.1 µM
# [21] = second compound 1 µM, first compound 0.316 µM
# [22] = second compound 1 µM, first compound 1 µM
# [23] = second compound 1 µM, first compound 3.16 µM
# [24] = second compound 1 µM, first compound 10 µM
# [25] = second compound 3.16 µM, first compound 0.0316 µM
# [26] = second compound 3.16 µM, first compound 0.1 µM
# [27] = second compound 3.16 µM, first compound 0.316 µM
# [28] = second compound 3.16 µM, first compound 1 µM
# [29] = second compound 3.16 µM, first compound 3.16 µM
# [30] = second compound 3.16 µM, first compound 10 µM
# [31] = second compound 10 µM, first compound 0.0316 µM
# [32] = second compound 10 µM, first compound 0.1 µM
# [33] = second compound 10 µM, first compound 0.316 µM
# [34] = second compound 10 µM, first compound 1 µM
# [35] = second compound 10 µM, first compound 3.16 µM
# [36] = second compound 10 µM, first compound 10 µM
# 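Note: spheroids exposed to compound for 7 days before readout.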
# 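Throughout, for viability, T/C: 100% = DMSO vehicle control wells.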
smiles,measurement,setting,value
CC1(O)CCCC1n1c(=O)c(C(F)F)cc2cnc(NC3CCN(S(C)(=O)=O)CC3)nc21 (stereo unspecified) + C#Cc1c(F)ccc2cc(O)cc(-c3ncc4c(N5CC6CCC(C5)N6)nc(OCC56CCCN5CC(F)C6)nc4c3F)c12,IC50,second compound 0.0316 µM,> 10 µM
same,IC50,second compound 0.1 µM,8.85 µM
same,IC50,second compound 0.316 µM,6.91 µM
same,IC50,second compound 1 µM,4.97 µM
same,IC50,second compound 3.16 µM,3.87 µM
same,IC50,second compound 10 µM,4.08 µM
same,"viability, T/C",[1],90.6%
same,"viability, T/C",[2],113%
same,"viability, T/C",[3],94.6%
same,"viability, T/C",[4],81.5%
same,"viability, T/C",[5],108%
same,"viability, T/C",[6],51.5%
same,"viability, T/C",[7],80.4%
same,"viability, T/C",[8],83.9%
same,"viability, T/C",[9],78.7%
same,"viability, T/C",[10],88%
same,"viability, T/C",[11],97.6%
same,"viability, T/C",[12],45.7%
same,"viability, T/C",[13],69.3%
same,"viability, T/C",[14],75.5%
same,"viability, T/C",[15],60.7%
same,"viability, T/C",[16],69.8%
same,"viability, T/C",[17],94.6%
same,"viability, T/C",[18],38.9%
same,"viability, T/C",[19],66.3%
same,"viability, T/C",[20],63.2%
same,"viability, T/C",[21],65.4%
same,"viability, T/C",[22],56.6%
same,"viability, T/C",[23],70.5%
same,"viability, T/C",[24],27.5%
same,"viability, T/C",[25],51%
same,"viability, T/C",[26],54.6%
same,"viability, T/C",[27],48%
same,"viability, T/C",[28],49.1%
same,"viability, T/C",[29],69%
same,"viability, T/C",[30],29.7%
same,"viability, T/C",[31],52.3%
same,"viability, T/C",[32],57.2%
same,"viability, T/C",[33],61%
same,"viability, T/C",[34],56%
same,"viability, T/C",[35],66.8%
same,"viability, T/C",[36],19.5%
CC(=O)OC12COC1CC(O)C1(C)C(=O)C(O)C3=C(C)C(OC(=O)C(O)C(NC(=O)OC(C)(C)C)c4ccccc4)CC(O)(C(OC(=O)c4ccccc4)C21)C3(C)C (stereo unspecified) + C#Cc1c(F)ccc2cc(O)cc(-c3ncc4c(N5CC6CCC(C5)N6)nc(OCC56CCCN5CC(F)C6)nc4c3F)c12,IC50,second compound 0.0316 µM,> 10 µM
same,IC50,second compound 0.1 µM,< 0.0316 µM
same,IC50,second compound 0.316 µM,< 0.0316 µM
same,IC50,second compound 1 µM,< 0.0316 µM
same,IC50,second compound 3.16 µM,< 0.0316 µM
same,IC50,second compound 10 µM,< 0.0316 µM
same,"viability, T/C",[1],62.9%
same,"viability, T/C",[2],54.2%
same,"viability, T/C",[3],55%
same,"viability, T/C",[4],37.4%
same,"viability, T/C",[5],55.3%
same,"viability, T/C",[6],71.7%
same,"viability, T/C",[7],54.4%
same,"viability, T/C",[8],52.1%
same,"viability, T/C",[9],42.2%
same,"viability, T/C",[10],40.9%
same,"viability, T/C",[11],52.8%
same,"viability, T/C",[12],56.9%
same,"viability, T/C",[13],45.7%
same,"viability, T/C",[14],43.1%
same,"viability, T/C",[15],30.8%
same,"viability, T/C",[16],40.6%
same,"viability, T/C",[17],39.9%
same,"viability, T/C",[18],43.6%
same,"viability, T/C",[19],37.8%
same,"viability, T/C",[20],36.4%
same,"viability, T/C",[21],36.5%
same,"viability, T/C",[22],32.3%
same,"viability, T/C",[23],34.2%
same,"viability, T/C",[24],29%
same,"viability, T/C",[25],37.1%
same,"viability, T/C",[26],26.4%
same,"viability, T/C",[27],23.6%
same,"viability, T/C",[28],30.3%
same,"viability, T/C",[29],30.7%
same,"viability, T/C",[30],23.2%
same,"viability, T/C",[31],30.2%
same,"viability, T/C",[32],26.5%
same,"viability, T/C",[33],23.4%
same,"viability, T/C",[34],25.6%
same,"viability, T/C",[35],28.6%
same,"viability, T/C",[36],28.2%
CC1(C)CCC(Nc2ncc(C(F)(F)F)c(-c3c[nH]c4c(P(C)(C)=O)c(C#N)ccc34)n2)CN1 (stereo unspecified) + CCn1c(-c2cc(N3CCN(C)CC3)cnc2C(C)OC)c2c3cc(ccc31)-c1csc(n1)CC(NC(=O)C1CC1C)C(=O)N1CCCC(N1)C(=O)OCC(C)(C)C2,IC50,second compound 0.000949 µM,> 0.3 µM
same,IC50,second compound 0.003 µM,> 0.3 µM
same,IC50,second compound 0.00949 µM,< 0.000949 µM
same,IC50,second compound 0.03 µM,< 0.000949 µM
same,IC50,second compound 0.0949 µM,< 0.000949 µM
same,IC50,second compound 0.3 µM,< 0.000949 µM
same,"viability, T/C","second compound 0.000949 µM, first compound 0.000949 µM",101%
same,"viability, T/C","second compound 0.000949 µM, first compound 0.003 µM",98%
same,"viability, T/C","second compound 0.000949 µM, first compound 0.00949 µM",73.5%
same,"viability, T/C","second compound 0.000949 µM, first compound 0.03 µM",88%
same,"viability, T/C","second compound 0.000949 µM, first compound 0.0949 µM",85.3%
same,"viability, T/C","second compound 0.000949 µM, first compound 0.3 µM",61.3%
same,"viability, T/C","second compound 0.003 µM, first compound 0.000949 µM",81.6%
same,"viability, T/C","second compound 0.003 µM, first compound 0.003 µM",69.6%
same,"viability, T/C","second compound 0.003 µM, first compound 0.00949 µM",63.8%
same,"viability, T/C","second compound 0.003 µM, first compound 0.03 µM",67.8%
same,"viability, T/C","second compound 0.003 µM, first compound 0.0949 µM",68.3%
same,"viability, T/C","second compound 0.003 µM, first compound 0.3 µM",48.8%
same,"viability, T/C","second compound 0.00949 µM, first compound 0.000949 µM",49.6%
same,"viability, T/C","second compound 0.00949 µM, first compound 0.003 µM",39.9%
same,"viability, T/C","second compound 0.00949 µM, first compound 0.00949 µM",45.5%
same,"viability, T/C","second compound 0.00949 µM, first compound 0.03 µM",39.3%
same,"viability, T/C","second compound 0.00949 µM, first compound 0.0949 µM",35.5%
same,"viability, T/C","second compound 0.00949 µM, first compound 0.3 µM",36%
same,"viability, T/C","second compound 0.03 µM, first compound 0.000949 µM",30.7%
same,"viability, T/C","second compound 0.03 µM, first compound 0.003 µM",32.9%
same,"viability, T/C","second compound 0.03 µM, first compound 0.00949 µM",30.2%
same,"viability, T/C","second compound 0.03 µM, first compound 0.03 µM",27.8%
same,"viability, T/C","second compound 0.03 µM, first compound 0.0949 µM",19.6%
same,"viability, T/C","second compound 0.03 µM, first compound 0.3 µM",27.2%
same,"viability, T/C","second compound 0.0949 µM, first compound 0.000949 µM",22.5%
same,"viability, T/C","second compound 0.0949 µM, first compound 0.003 µM",24.8%
same,"viability, T/C","second compound 0.0949 µM, first compound 0.00949 µM",21.6%
same,"viability, T/C","second compound 0.0949 µM, first compound 0.03 µM",21.6%
same,"viability, T/C","second compound 0.0949 µM, first compound 0.0949 µM",19.4%
same,"viability, T/C","second compound 0.0949 µM, first compound 0.3 µM",23.6%
same,"viability, T/C","second compound 0.3 µM, first compound 0.000949 µM",21.6%
same,"viability, T/C","second compound 0.3 µM, first compound 0.003 µM",19.4%
same,"viability, T/C","second compound 0.3 µM, first compound 0.00949 µM",21.3%
same,"viability, T/C","second compound 0.3 µM, first compound 0.03 µM",17.5%
same,"viability, T/C","second compound 0.3 µM, first compound 0.0949 µM",18.6%
same,"viability, T/C","second compound 0.3 µM, first compound 0.3 µM",18.3%
